Source: US20250296916A1, “BICYCLIC PIPERAZINONES AND THERAPEUTIC USES THEREOF” (Cytokinetics, Inc., priority 2022, published 2025)

System: rabbit skeletal myofibrils (approximately 90% fast fibers)
Assay: Activation of fast skeletal myofibrils (PUMA coupled-enzyme ATPase assay)
Type: biochemical
Conditions: concentration at which the compound increased the enzymatic activity by 40%; calcium at pCa25; PM12 buffer pH 6.8
Experimental: Preparation of fast skeletal myofibrils: Rabbit skeletal myofibrils were prepared based upon the method of Herrmann et al. (Biochem. 32 (28): 7255-7263 (1993). Myofibrils were prepared from rabbit psoas muscle purchased from Pel-Freez Biologicals (Arkansas) within 2 days of ordering, stored on ice. Minced muscle was homogenized in 10 volumes of ice-cold “standard” buffer (50 mM Tris, pH 7.4, 0.1 M KOAc, 5 mM KCl, 2 mM dithiothreitol (DTT), 0.2 mM phenylmethylsulfonyl fluoride (PMSF), 10 μM leupeptin, 5 μM pepstatin, and 0.5 mM sodium azide) containing 5 mM ethylenediaminetetraacetic acid (EDTA) and 0.5% Triton X-100 using an Omni-Macro homogenizer. Myofibrils were recovered by low speed centrifugation (3000 rpm for 10 minutes) and washed 2 times in the Triton X-100 containing buffer to ensure removal of cellular membrane. Following the Triton washes, myofibrils were washed 3 times in “standard” buffer containing 2 mM magnesium acetate. A final wash in assay buffer (12 mM piperazine-1,4-bis(2-ethanesulfonic acid) (PIPES), pH 6.8, 60 mM KCl, 1 mM DTT) was performed and brought to 10% sucrose for flash freezing in liquid nitrogen and storage at −80° C.
Activation of Fast Skeletal Myofibrils: Fast fiber activators were identified by measuring the enzymatic activity of muscle myofibril preparations using the proprietary PUMA (trademark) (see, e.g., U.S. Pat. Nos. 6,410,254, 6,743,599, 7,202,051, and 7,378,254) assay system. Myofibril preparations consisted of rabbit skeletal muscle (approximately 90% fast fibers) that had been mechanically homogenized and washed with a detergent (Triton X-100) to remove cellular membranes. This preparation retained all of the sarcomeric components in a native conformation and the enzymatic activity was still regulated by calcium. Compounds were tested using a myofibril suspension and a level of calcium sufficient to increase enzymatic activity of the myofibrils to 25% of their maximal rate (termed pCa25). Enzymatic activity was tracked via a pyruvate kinase and lactate dehydrogenase-coupled enzyme system. This assay regenerates myosin-produced ADP into ATP by oxidizing NADH, producing an absorbance change at 340 nm. The buffering system was 12 mM PIPES, 2 mM MgCl2, 1 mM DTT at pH 6.8 (PM12 buffer). […] In Table 3, “Example Compound” refers to the compound labeled with the same number in Table 2.

SMILES	AC1.4
CCC[C@H]1C(=O)Nc2ccccc2N1C(=O)c1cnc2[nH]ncc2c1 [Compound 73, (S)-3-propyl-4-(1H-pyrazolo[3,4-b]pyridine-5-carbonyl)-3,4-dihydroquinoxalin-2(1H)-one]	0.11 µM
CCC[C@H]1C(=O)Nc2ccccc2N1C(=O)N1CCc2ccccc21 [Compound 52, (S)-4-(indoline-1-carbonyl)-3-propyl-3,4-dihydroquinoxalin-2(1H)-one]	0.58 µM
CC[C@H](C)[C@H]1C(=O)Nc2cncnc2N1C(=O)c1cnn(C)c1 [Compound 94, (S)-7-((S)-sec-butyl)-8-(1-methyl-1H-pyrazole-4-carbonyl)-7,8-dihydropteridin-6(5H)-one]	1.66 µM
CCC[C@H]1C(=O)Nc2ccccc2N1C(=O)c1ccc(N(C)Cc2ccccc2)nc1 [Compound 39, (S)-4-(6-(benzyl(methyl)amino)nicotinoyl)-3-propyl-3,4-dihydroquinoxalin-2(1H)-one]	0.27 µM
CCC[C@H]1C(=O)Nc2ccccc2N1C(=O)NCC1CCCCC1 [Compound 51, (S)-N-(cyclohexylmethyl)-3-oxo-2-propyl-3,4-dihydroquinoxaline-1(2H)-carboxamide]	0.48 µM
CC[C@H](C)[C@H]1C(=O)Nc2ccccc2N1C(=O)N1CC(F)(F)C1 [Compound 117, (S)-3-((S)-sec-butyl)-4-(3,3-difluoroazetidine-1-carbonyl)-3,4-dihydroquinoxalin-2(1H)-one]	1.24 µM
CC(C)[C@H]1C(=O)Nc2ccccc2N1C(=O)c1cnn(C)c1 [Compound 77, (S)-3-isopropyl-4-(1-methyl-1H-pyrazole-4-carbonyl)-3,4-dihydroquinoxalin-2(1H)-one]	0.08 µM
CCC[C@H]1C(=O)Nc2ccccc2N1C(=O)c1ccccc1 [Compound 10, (S)-4-benzoyl-3-propyl-3,4-dihydroquinoxalin-2(1H)-one]	0.33 µM
CCC[C@H]1C(=O)Nc2ccccc2N1C(=O)c1ccc(N2CCCCC2)nc1 [Compound 29, (S)-4-(6-(piperidin-1-yl)nicotinoyl)-3-propyl-3,4-dihydroquinoxalin-2(1H)-one]	2.7 µM
CCC[C@H]1C(=O)Nc2ccccc2N1C(=O)c1ccc(NCc2ccccc2)nc1 [Compound 36, (S)-4-(6-(benzylamino)nicotinoyl)-3-propyl-3,4-dihydroquinoxalin-2(1H)-one]	0.65 µM
CCC[C@H]1C(=O)Nc2ccccc2N1C(=O)Nc1ccc(OC)cc1 [Compound 55, (S)-N-(4-methoxyphenyl)-3-oxo-2-propyl-3,4-dihydroquinoxaline-1(2H)-carboxamide]	1.88 µM
CCC[C@H]1C(=O)Nc2ccccc2N1C(=O)c1cnn(CC2CC2)c1 [Compound 31, (S)-4-(1-(cyclopropylmethyl)-1H-pyrazole-4-carbonyl)-3-propyl-3,4-dihydroquinoxalin-2(1H)-one]	0.41 µM
CCC[C@H]1C(=O)Nc2ccccc2N1C(=O)c1conc1C [Compound 14, (S)-4-(3-methylisoxazole-4-carbonyl)-3-propyl-3,4-dihydroquinoxalin-2(1H)-one]	1.66 µM
CCC[C@H]1C(=O)Nc2ccccc2N1C(=O)c1cn(C)nc1C [Compound 45, (S)-4-(1,3-dimethyl-1H-pyrazole-4-carbonyl)-3-propyl-3,4-dihydroquinoxalin-2(1H)-one]	0.2 µM
CC[C@H](C)[C@H]1C(=O)Nc2cccnc2N1C(=O)c1ccc(=O)n(C)c1 [Compound 92, (S)-3-((S)-sec-Butyl)-4-(1-methyl-6-oxo-1,6-dihydropyridine-3-carbonyl)-3,4-dihydropyrido[2,3-b]pyrazin-2(1H)-one]	1.03 µM
CCC[C@H]1C(=O)Nc2ccccc2N1C(=O)Nc1ccncc1 [Compound 48, (S)-3-oxo-2-propyl-N-(pyridin-4-yl)-3,4-dihydroquinoxaline-1(2H)-carboxamide]	1.08 µM
CCC[C@H]1C(=O)Nc2ccccc2N1C(=O)c1ccc(N2CCC(F)C2)nc1 (stereo partly drawn) [Compound 41, (3S)-4-(6-(3-fluoropyrrolidin-1-yl)nicotinoyl)-3-propyl-3,4-dihydroquinoxalin-2(1H)-one]	1.63 µM
CCC[C@H]1C(=O)Nc2ccccc2N1C(=O)c1ccc(N2CC(F)(F)C2)nc1 [Compound 42, (S)-4-(6-(3,3-difluoroazetidin-1-yl)nicotinoyl)-3-propyl-3,4-dihydroquinoxalin-2(1H)-one]	2.34 µM

SMILES	AC1.4
CCC[C@H]1C(=O)Nc2ccccc2N1C(=O)c1ccc2cncn2c1 [Compound 65, (S)-4-(imidazo[1,5-a]pyridine-6-carbonyl)-3-propyl-3,4-dihydroquinoxalin-2(1H)-one]	0.39 µM
CCC[C@H]1C(=O)Nc2ccccc2N1C(=O)Nc1ccccc1C [Compound 60, (S)-3-oxo-2-propyl-N-(o-tolyl)-3,4-dihydroquinoxaline-1(2H)-carboxamide]	0.82 µM
CC[C@H](C)[C@H]1C(=O)Nc2ccccc2N1C(=O)N[C@H]1C[C@@H](O)C1 [Compound 133, (S)-2-((S)-sec-butyl)-N-((1s,3R)-3-hydroxycyclobutyl)-3-oxo-3,4-dihydroquinoxaline-1(2H)-carboxamide]	1.68 µM
CCC[C@H]1C(=O)Nc2ccccc2N1C(=O)c1cc2cccn2cn1 [Compound 70, (S)-3-propyl-4-(pyrrolo[1,2-c]pyrimidine-3-carbonyl)-3,4-dihydroquinoxalin-2(1H)-one]	0.46 µM
CC[C@H](C)[C@H]1C(=O)Nc2ccccc2N1C(=O)c1cc[nH]n1 [Compound 79, (S)-3-((S)-sec-butyl)-4-(1H-pyrazole-3-carbonyl)-3,4-dihydroquinoxalin-2(1H)-one]	0.88 µM
CCC[C@H]1C(=O)Nc2ccccc2N1C(=O)c1ccc(N2CCCCCC2)nc1 [Compound 35, (S)-4-(6-(azepan-1-yl)nicotinoyl)-3-propyl-3,4-dihydroquinoxalin-2(1H)-one]	1.32 µM
CC[C@H](C)[C@H]1C(=O)Nc2ncccc2N1C(=O)c1cnn(C)c1 [Compound 95, (S)-2-((S)-sec-butyl)-1-(1-methyl-1H-pyrazole-4-carbonyl)-1,4-dihydropyrido[2,3-b]pyrazin-3(2H)-one]	0.84 µM
CCC[C@H]1C(=O)Nc2ccccc2N1C(=O)c1ccc(N2CC(F)C2)nc1 [Compound 38, (S)-4-(6-(3-fluoroazetidin-1-yl)nicotinoyl)-3-propyl-3,4-dihydroquinoxalin-2(1H)-one]	1.58 µM
CC[C@H](C)[C@H]1C(=O)Nc2ccccc2N1C(=O)N1CC(CO)C1 [Compound 111, (S)-3-((S)-sec-butyl)-4-(3-(hydroxymethyl)azetidine-1-carbonyl)-3,4-dihydroquinoxalin-2(1H)-one]	2.06 µM
CCC[C@H]1C(=O)Nc2ccccc2N1C(=O)c1ccc(N(C)CC)nc1 [Compound 33, (S)-4-(6-(ethyl(methyl)amino)nicotinoyl)-3-propyl-3,4-dihydroquinoxalin-2(1H)-one]	0.95 µM
CCC[C@H]1C(=O)Nc2ccccc2N1C(=O)c1cnn(C2CC2)c1 [Compound 76, (S)-4-(1-cyclopropyl-1H-pyrazole-4-carbonyl)-3-propyl-3,4-dihydroquinoxalin-2(1H)-one]	0.47 µM
CCC[C@H]1C(=O)Nc2ccccc2N1C(=O)NCc1ccccc1 [Compound 49, (S)-N-benzyl-3-oxo-2-propyl-3,4-dihydroquinoxaline-1(2H)-carboxamide]	2.08 µM
CCC[C@H]1C(=O)Nc2ccccc2N1C(=O)c1ccc(Cl)nc1 [Compound 5, (S)-4-(6-chloronicotinoyl)-3-propyl-3,4-dihydroquinoxalin-2(1H)-one]	0.38 µM
CCC[C@H]1C(=O)Nc2ccccc2N1C(=O)c1cccc(F)c1 [Compound 17, (S)-4-(3-fluorobenzoyl)-3-propyl-3,4-dihydroquinoxalin-2(1H)-one]	0.17 µM
CC[C@H](C)[C@H]1C(=O)Nc2c(F)cccc2N1C(N)=O [Compound 100, (S)-2-((S)-sec-Butyl)-5-fluoro-3-oxo-3,4-dihydroquinoxaline-1(2H)-carboxamide]	1.58 µM
CCCC1C(=O)Nc2ccccc2N1C(=O)c1ccc(Cl)nc1 (centres unmarked) [Compound 1, 4-(6-chloronicotinoyl)-3-propyl-3,4-dihydroquinoxalin-2(1H)-one]	0.45 µM
CCC[C@H]1C(=O)Nc2ccccc2N1C(=O)c1ccn2cncc2c1 [Compound 66, (S)-4-(imidazo[1,5-a]pyridine-7-carbonyl)-3-propyl-3,4-dihydroquinoxalin-2(1H)-one]	0.17 µM
